Several values for one entry are separate records, joined by “and”; a condition that tells them apart may be missing. Identical values can stand only once.
How the values were obtained:
[1] = system: heat shock; assay: Heat shock by 1 hour exposure in incubator at 44° C, sensitivity to heat; format: in vivo, rat; details: for Sensitization to heat: male rats, pretreatment; for Protection against heat, earlier work: males
Text: The present invention centers on the concept of using opioids as a protective agent against heat shock. Earlier work studied how two opioids, deltorphin D and DADLE would affect molecular stress response to heat and survival. […] The current study focused on the use of deltorphin D to protect against heat stroke by administration before, after, or before and after, heat stroke. Heat stroke is defined as a rapid rise in blood pressure followed by a crash in pressure in response to overheating.
(§1) The subjects were male and female Charles River rats. The rats were divided by sex and by treatment groups. There were four treatment groups: control saline treatment, heat shock-saline treatment, heat shock-DADLE treatment, and heat shock-deltorphin-D treatment. The rats underwent a three-day protocol, receiving injections each day and on the final day undergoing heat shock. The final treatment was given on day three of the experiment, 20 minutes before heat shock. Treatment consisted of intravenous tail injections at 1 mg/kg body weight for all groups. Heat shock was initiated by 1 hour exposure in an incubator at 44° C. The rats were sacrificed 2 hours later and alteration of molecular responses monitored by gel electrophoresis of RNA using Northern blots. DNA sequences for the molecular markers HSP70 and ubiquitin were used to probe the blots. The probes were radioactively labeled with p^32 to label the probe. When the probe “finds” its complementary sequence, it binds to it and the intensity of the signal which results is determined using Molecular Analyst software of the signals on X-ray film. The intensity of the black areas on the film is a measure of gene activity altered by treatment with the respective opioids.

[2] = system: HSP 70 and ubiquitin; assay: Molecular stress response (HSP 70 and ubiquitin) after heat stress, overall; format: in vivo, rat; details: pretreatment before heat shock; drug-unique patterns
Experimental: (§2) Experiments were undertaken to study the molecular stress response after heat stress with and without opiate pretreatment in rats. Since it is know that both behavior and pain response to opiates are gender-dependent, both male and female rats were used. The animals were treated by exposure to dry heat at a colonic temperature of 44° C. The animals were sacrificed and brain, leg and heart tissue was removed. The molecular stress responses chosen were HSP 70 and ubiquitin. HSP 70 is a chaperone protein which helps repair damaged proteins, and UbB and UbC forms of ubiquitin are induced by cell damage. Messenger RNA was extracted and analyzed using Northern Blot determination of transcript intensity in saline heat shock controls versus pretreatment with DADLE, a non-specific delta opioid agonist, and deltorphin D.
The subjects were male and female Charles River rats. The rats were divided by sex and by treatment groups. […] The rats were sacrificed 2 hours later and alteration of molecular responses monitored by gel electrophoresis of RNA using Northern blots. […] When the probe “finds” its complementary sequence, it binds to it and the intensity of the signal which results is determined using Molecular Analyst software of the signals on X-ray film. […]

[3] = system: hemorrhagic shock; details: cited from earlier work
[4] = Change in body core temperature with injections; format: in vivo, rat; details: for Effect on body temperature, earlier work: males
[5] = system: HSP70; assay: Northern blot of HSP70 mRNA in tissues after heat shock with opioid pretreatment; format: in vivo, rat; details: heat shock 1 h 44° C
Experimental: as §2, §1

[6] = system: UbB; assay: Northern blot of UbB mRNA in tissues after heat shock with opioid pretreatment; format: in vivo, rat; details: heat shock 1 h 44° C
Experimental: as §2, §1

[7] = system: UbC; assay: Northern blot of UbC mRNA in tissues after heat shock with opioid pretreatment; format: in vivo, rat; details: heat shock 1 h 44° C
Experimental: as §2, §1

[8] = Change in body core temperature with injections; format: in vivo, rat; details: for Changes in Body Temperature, Temperature Day 1 / Changes in Body Temperature, Temperature Day 2: individual animals, 1 mg/kg i.v. tail injection, 1 mg/kg; for Effect on body temperature: summary of Table 3
Experimental: as §1

[9] = system: cerebral ischemia; details: ischemia in mammals; cited from earlier work
[10] = system: heat stroke; assay: Heat stroke induced by heating blanket in ketamine-anesthetized male rats; format: in vivo, rat; details: for Body temperature at blood pressure crash (onset of heat stroke): blanket 51.5° C.
Experimental: Male rats were used in the study. The first rat weighed approximately 500 g and was anesthetized with ketamine and then wrapped in a heating blanket to raise its body temperature and induce heat stroke. The temperature and blood pressure of the anesthetized rat was monitored with a recording colonic temperature probe and a tail blood pressure cuff. When the symptoms of heat stroke were observed, 1.8 ml of 1.0 mg/ml pure deltorphin D was administered in the tail vein. The amount of deltorphin administered was based on the earlier hemorrhagic studies of Dr. Oeltgrn.
The second male rat was catherized with an arterial line two weeks previous to the next experiment to provide a means for more rapidly providing the deltorphin. The second rat weighed approximately 500 g and was anesthetized with ketamine and then wrapped in a heating blanket set at 51.5° C. to raise its body temperature and induce heat stroke. Prior to being wrapped in the heating blanket, a pre-treatment injection of 1.8 ml of 1.0 mg/ml pure deltorphin was provided through the catheter. The temperature and blood pressure of the anesthetized rat was monitored with a recording colonic temperature probe and blood pressure was monitored and recorded off of the arterial line. […] One hour later, another 1.8 ml of 1.0 mg/ml pure deltorphin was administered through the catheter. At that time, the rat was having difficulty moving.
A third male rat weighing approximately 200 g was catherized with an arterial line the day before the test. The third rat was anesthetized with ketamine and then wrapped in a heating blanket set at 51.5° C. to raise its body temperature and induce heat stroke. Prior to being wrapped in the heating blanket, a pre-treatment injection of 0.7 ml of 1.0 mg/ml pure deltorphin was provided through the catheter. The temperature and blood pressure of the anesthetized rat was monitored with a recording colonic temperature probe and blood pressure was monitored and recorded off of the arterial line. […] Fifteen minutes later, another 0.7 ml of 1.0 mg/ml pure deltorphin was administered through the catheter. The rat died approximately 75 minutes after the onset of heat stroke. […] Nonetheless, the third animal lived for 75 minutes. This survival rate is long when compared to the study reported at Chi WT, Kao TY, Lin MT. Neurosci Res. 1996 24:159-163 wherein rats in which heat stroke was induced lived only about 17 minutes after the onset of heat stroke and continuous perfusion of the animals with saline did nothing to extend their survival.

[11] = Male rats, individual animals, 1 mg/kg i.v. tail injection, 1 mg/kg
[12] = Female Brain, 1 mg/kg i.v. tail injections over 3 days, sacrificed 2 hours later
[13] = second rat, 1.8 ml of 1.0 mg/ml before heating and one hour after onset, through catheter

Molecule | Sensitization to heat [1] | Protection against heat, earlier work [1] | Alteration of the molecular stress response [2] | Effect on body temperature, earlier work [4] | HSP measurement (Northern blot transcript intensity) [5, 12] | HSP measurement (Northern blot transcript intensity) ([5]; Female Heart, 1 mg/kg i.v.) | HSP measurement (Northern blot transcript intensity) ([5]; Female Leg, 1 mg/kg i.v.) | HSP measurement (Northern blot transcript intensity) ([5]; Male Brain, 1 mg/kg i.v.) | HSP measurement (Northern blot transcript intensity) ([5]; Male Heart, 1 mg/kg i.v.) | HSP measurement (Northern blot transcript intensity) ([5]; Male Leg, 1 mg/kg i.v.) | UBB measurement (Northern blot transcript intensity) [6, 12] | UBB measurement (Northern blot transcript intensity) ([6]; Female Heart, 1 mg/kg i.v.) | UBB measurement (Northern blot transcript intensity) ([6]; Female Leg, 1 mg/kg i.v.) | UBB measurement (Northern blot transcript intensity) ([6]; Male Brain, 1 mg/kg i.v.) | UBB measurement (Northern blot transcript intensity) ([6]; Male Heart, 1 mg/kg i.v.) | UBB measurement (Northern blot transcript intensity) ([6]; Male Leg, 1 mg/kg i.v.) | UBC measurement (Northern blot transcript intensity) [7, 12] | UBC measurement (Northern blot transcript intensity) ([7]; Female Heart, 1 mg/kg i.v.) | UBC measurement (Northern blot transcript intensity) ([7]; Female Leg, 1 mg/kg i.v.) | UBC measurement (Northern blot transcript intensity) ([7]; Male Brain, 1 mg/kg i.v.) | also measured
CC(C)C[C@@H](NC(=O)[C@H](Cc1ccccc1)NC(=O)CNC(=O)[C@@H](C)NC(=O)[C@@H](N)Cc1ccc(O)cc1)C(=O)O [DADLE, [D-Ala2-D-Leu5]enkephalin acetate (Tyr-D-Ala-Gly-Phe-D-Leu), reference compound] | sensitized male rats to heat | did not show these effects | significant (p<0.05) alteration of the molecular stress response | did not show these effects | 1.295 | 0.8958 | 0.884 | 1.391 | 0.5364 | 0.3294 | 1.688 | 3.57 | 2.76 | 4.596 | 0.7754 | 0.6005 | 0.7993 | 0.5605 | 0.8995 | 2.356 | Effect on fallen mean arterial pressure ([3]; Summers et al. 2003): quickly reverses fallen mean arterial pressure; Survival of hemorrhagic shock ([3]; Summers et al. 2003): increase survival of hemorrhagic shock; Changes in Body Temperature, Temperature Day 1 [4, 11]: 2.36 and 1.82; Changes in Body Temperature, Temperature Day 2 [4, 11]: 1.55 and 0.2; UBC measurement (Northern blot transcript intensity) ([7]; Male Heart, 1 mg/kg i.v.): 0.5837; UBC measurement (Northern blot transcript intensity) ([7]; Male Leg, 1 mg/kg i.v.): 0.18; Changes in Body Temperature, Temperature Day 1 ([8]; Female rats): −2.4 and 0.45 and −1.85 and −0.85; Changes in Body Temperature, Temperature Day 2 ([8]; Female rats): −3.45 and −1.65 and −1.45 and −0.35; Effect on body temperature [8]: raises body temperature
[D-Ala2-MePhe4-Glyol]enkephalin [DAGO] | – | – | – | – | – | – | – | – | – | – | – | – | – | – | – | – | – | – | – | – | Restoration of mean arterial pressure after hemorrhage ([3]; bleeding non-lethal, Feuerstein et al. 1985): restore mean arterial pressure after hemorrhage
Tyr-D-Ala-Phe-Ala-Asp-Val-Ala-Ser-Thr-Ile-Gly-Asp-Phe-Phe-His-Ser-Ile-NH2 (AFADVASTIGDFFHSI; N-terminal Tyr-D-, C-amide; printed: Ala-Phe-Ala-Asp-Val-Ala-Ser-Thr-Ile-Gly-Asp-Phe-Phe-His-Ser-Ile-) [deltorphin D, linear 17 amino acid opioid peptide synthesized on a commercial peptide synthesizer] | not | protective against heat | significant (p<0.05) alteration of the molecular stress response | lowered body temperature | 0.02634 | 1.27 | 0.9001 | 1.043 | 0.3697 | 0.6697 | 2.844 | 2.845 | 2.803 | 2.259 | 0.5613 | 2.319 | 0.7664 | 0.8595 | 0.2439 | 1.694 | Effect on neurological deficit and cerebral infarct volume [9]: decreasing neurological deficit and cerebral infarct volume; Survival after heat stroke ([10]; first rat, approx. 500 g, 1.8 ml of 1.0 mg/ml in the tail vein when symptoms of heat stroke were observed): survived only a few minutes; Body temperature at blood pressure crash (onset of heat stroke) ([10]; second rat, approx. 500 g, pre-treatment 1.8 ml of 1.0 mg/ml through arterial catheter): 41 °C; Ability to drink seven hours after the onset of heat stroke [10, 13]: able to drink 5 ml of water out of a pipette; Ability to move two hours after the onset of heat stroke [10, 13]: able to move some on its own; Survival after heat stroke [10, 13]: alive and healthy more than four weeks after the test; Survival time after the onset of heat stroke ([10]; third rat, approx. 200 g, 0.7 ml of 1.0 mg/ml before heating and fifteen minutes after onset, catheter installed the day before): approximately 75 minutes; Body temperature at blood pressure crash (onset of heat stroke) ([10]; third rat, approx. 200 g, pre-treatment 0.7 ml of 1.0 mg/ml through arterial catheter): 41 °C; Survival relative to expected time in the absence of deltorphin administration ([10]; third rat, compared with about 17 minutes in Chi et al. 1996): more than four times the expected time; UBC measurement (Northern blot transcript intensity) ([7]; Male Heart, 1 mg/kg i.v.): 0.04345; UBC measurement (Northern blot transcript intensity) ([7]; Male Leg, 1 mg/kg i.v.): 0.1339; Changes in Body Temperature, Temperature Day 1 ([8]; Female rats): −0.7 (2×) and 0.2 and −1.6 and −1.5; Changes in Body Temperature, Temperature Day 2 ([8]; Female rats): −1.4 and −1.7 and −1.6 and −1.9 and −2.8; Changes in Body Temperature, Temperature Day 1 ([8]; Male rats): −2.6 and −2.2 and −1.2 and −3.1; Changes in Body Temperature, Temperature Day 2 ([8]; Male rats): −2.9 and −1.4 and −0.7 and −2.2; Effect on body temperature [8]: lowers body temperature significantly

— patent US20050130893A1, “Use of opioids in prevention of and recovery from a stress-induced crash in blood pressure” (priority 2003, published 2005)
